Consider 18 compounds from patent publication US20240228499A1, “MASP-2 INHIBITORS AND METHODS OF USE” (Omeros Corporation, priority 2022, published 2024).

One assay deals with T1, human a-thrombin (Homo sapiens, UniProt P00734).
T1 construct: enzyme (human a-thrombin (BioPharm® Lab.)); purchased BioPharm Lab
In words: Enzymatic assay for thrombin (fluorogenic peptide substrate Boc-VPR-AMC). In kind it is biochemical. Conditions: room temperature, 20 mM Hepes pH 7.4, 20 min. The method, then: The thrombin assay utilizes a fluorogenic peptide substrate (Boc-VPR-AMC (R&D Systems) and was run at room temperature in an assay buffer containing 20 mM Hepes, pH 7.4, 140 mM NaCl and 0.1% Tween 20. Assay parameters were adjusted such that the assay was linear with respect to time, enzyme, and substrate concentrations. Under these optimized assays conditions, IC50 values were equivalent to Ki values, except in a few cases of “tight binding” inhibitors. Cases of “tight binding” or possible “slow binding” inhibitors were handled by the methods described in Copeland R.A. (2013) Evaluation of Enzyme Inhibitors in Drug Discovery. 2nd Ed. John Wiley and Sons, Inc., Chapters 5-7.
The thrombin assay protocol was carried out as follows. Test compounds were serially diluted in DMSO and then 100 nL of each dilution was transferred to the assay plate(s). 10 μL of Assay Buffer was added, followed by 15 μL of enzyme (human a-thrombin (BioPharm® Lab.)) in assay buffer. 15 μL of substrate in assay buffer was then added and the sample mixed to start the reaction. After 20 min at room temperature, 15 μL of a stop solution (0.1 M acetic acid) was added, the sample was mixed, and the plates were read on a SpectraMax® i3× Microplate Reader with the data exported as Excel files. Each assay plate included a “no inhibitor” (DMSO only) control, a “no enzyme” control, and a reference inhibitor control. % Activity values=100*(ave. test comp. fluorescence−ave. “no enz” fluorescence)/(ave. “DMSO only” fluorescence−ave. “no enz” fluorescence). IC50 and Ki values were very reproducible, with values falling well within +2-fold.

A further assay concerns the target T2, MASP-2 (CCP1-CCP2-SP) (Homo sapiens, UniProt O00187).
T2 construct: 15 μL of Enzyme MASP-2 (CCP1-CCP2-SP) in Assay Buffer
In words: Enzymatic assay for MASP-2 inhibitory activity (fluorogenic substrate). The format is biochemical. Conditions: room temperature, 20 mM Hepes pH 7.4, 20 min. The method, then: The MASP-2 assay utilizes a fluorogenic substrate, based on the cleavage site for its natural substrate C2. The assay was run at room temperature in an assay buffer containing 20 mM HEPES, pH 7.4, 140 mM NaCl and 0.1% Tween 20. Assay parameters were adjusted such that the assay was linear with respect to time, enzyme, and substrate concentrations. Under the optimized assays conditions, IC50 values were equivalent to Ki values, except in the few cases of “tight binding” inhibitors. Cases of “tight binding” or possible “slow binding” inhibitors were handled by the methods described in Copeland R. A. (2013) Evaluation of Enzyme Inhibitors in Drug Discovery. 2nd Ed., John Wiley and Sons, Inc., Chapters 5-7.
The MASP-2 assay protocol was carried out as follows. Test compounds were serially diluted in DMSO and then 100 nL of each dilution was transferred to the assay plate(s). 10 μL of Assay Buffer was added, followed by 15 μL of Enzyme MASP-2 (CCP1-CCP2-SP) in Assay Buffer. 15 μL of Substrate in Assay Buffer was then added and the mixture was mixed to start the reaction. After 20 min at room temperature, 15 μL of a stop solution (0.1 M acetic acid) was added, the sample was mixed, and the plates were read on a SpectraMax i3× Microplate Reader with the data exported as an Excel file. Each assay plate included a “no inhibitor” (DMSO only) control, a “no enzyme” control, and a reference inhibitor control. % Activity values=100*(average test comp. fluorescence−average “no enzyme” fluorescence)/(average “DMSO only” fluorescence−average “no enzyme” fluorescence). IC50 and Ki replicate values were very reproducible, with values well within +2-fold.

Structures can show the parent of a compound that is named as a salt.

T2 sequence (O00187 287-686 limits assumed): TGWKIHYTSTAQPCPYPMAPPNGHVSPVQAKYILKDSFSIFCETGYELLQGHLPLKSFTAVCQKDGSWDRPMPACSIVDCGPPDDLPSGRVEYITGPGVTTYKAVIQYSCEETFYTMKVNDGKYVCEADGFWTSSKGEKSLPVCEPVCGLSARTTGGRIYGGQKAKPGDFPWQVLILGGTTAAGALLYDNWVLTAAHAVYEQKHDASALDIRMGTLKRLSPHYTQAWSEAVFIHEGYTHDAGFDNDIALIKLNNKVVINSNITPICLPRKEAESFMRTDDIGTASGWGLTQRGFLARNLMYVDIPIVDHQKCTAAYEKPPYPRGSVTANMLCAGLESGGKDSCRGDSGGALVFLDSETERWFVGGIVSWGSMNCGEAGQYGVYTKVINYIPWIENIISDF

Take `Cc1cc(C)cc(CNc2cnc3n(c2=O)[C@H](C(=O)NCc2cc(Cl)ccc2-n2cnnn2)CC3)c1` [Compound 5, (S)—N-(5-chloro-2-(1H-tetrazol-1-yl)benzyl)-3-((3,5-dimethylbenzyl)amino)-4-oxo-4,6,7,8-tetrahydropyrrolo[1,2-a]pyrimidine-6-carboxamide trifluoroacetic acid]: the Ki on human a-thrombin and on MASP-2 (CCP1-CCP2-SP) was less than 500 nM each time.
Turning to `Cc1nc(N)ccc1CNC(=O)[C@@H]1CCc2ncc(NCc3cccc(N4CCOCC4)c3)c(=O)n21` [Compound 11, (S)-N-((6-amino-2-methylpyridin-3-yl)methyl)-3-((3-morpholinobenzyl)amino)-4-oxo-4,6,7,8-tetrahydropyrrolo[1,2-a]pyrimidine-6-carboxamide, hydrochloride], the Ki is 500 to 2500 nM at human a-thrombin and less than 500 nM at MASP-2 (CCP1-CCP2-SP).
On the same counts, the results for `Cc1cc(C)cc(CNc2cnc3n(c2=O)[C@H](C(=O)NCc2cc4c(s2)CNC4)CC3)c1` [Compound 21, (S)—N-((5,6-dihydro-4H-thieno[2,3-c]pyrrol-2-yl)methyl)-3-((3,5-dimethylbenzyl)amino)-4-oxo-4,6,7,8-tetrahydropyrrolo[1,2-a]pyrimidine-6-carboxamide, trifluoroacetate] are 2500 to 10000 nM and less than 500 nM.
As to `COc1cc(C)cc(CNc2cnc3n(c2=O)[C@H](C(=O)NCc2ccc(N)nc2C)CC3)c1` [Compound 2, (S)—N-((6-amino-2-methylpyridin-3-yl)methyl)-3-((3-methoxy-5-methylbenzyl)amino)-4-oxo-4,6,7,8-tetrahydropyrrolo[1,2-a]pyrimidine-6-carboxamide], the Ki at human a-thrombin and on MASP-2 (CCP1-CCP2-SP) was less than 500 nM throughout.
Consider `CCOc1cccc(CNc2cnc3n(c2=O)[C@H](C(=O)NCc2ccc(N)nc2C)CC3)c1` [Compound 57, (S)—N-((6-amino-2-methylpyridin-3-yl)methyl)-3-((3-ethoxybenzyl)amino)-4-oxo-4,6,7,8-tetrahydropyrrolo[1,2-a]pyrimidine-6-carboxamide], for which the Ki is 500 to 2500 nM at human a-thrombin and less than 500 nM at MASP-2 (CCP1-CCP2-SP).
For `Cc1cc(F)cc(CNc2cnc3n(c2=O)[C@H](C(=O)NCc2ccc(N)nc2C)CC3)c1` [Compound 34, (S)-N-((6-amino-2-methylpyridin-3-yl)methyl)-3-((3-fluoro-5-methylbenzyl)amino)-4-oxo-4,6,7,8-tetrahydropyrrolo[1,2-a]pyrimidine-6-carboxamide, di-trifluoroacetate], the Ki on human a-thrombin and on MASP-2 (CCP1-CCP2-SP) was less than 500 nM throughout.
In the case of `COc1cc(Cl)cc(CNc2cnc3n(c2=O)[C@H](C(=O)NCc2ccc(N)nc2C)CC3)c1` [Compound 74, (S)-N-((6-amino-2-methylpyridin-3-yl)methyl)-3-((3-chloro-5-methoxybenzyl)amino)-4-oxo-4,6,7,8-tetrahydropyrrolo[1,2-a]pyrimidine-6-carboxamide], the Ki on human a-thrombin and at MASP-2 (CCP1-CCP2-SP) was less than 500 nM in each case.
Consider `Cc1c(C#N)cccc1CNc1cnc2n(c1=O)[C@H](C(=O)N[C@@H]1CCc3nc(N)ccc31)CC2` [Compound 92, (S)-N-((R)-2-amino-6,7-dihydro-5H-cyclopenta[b]pyridin-5-yl)-3-((3-cyano-2-methylbenzyl)amino)-4-oxo-4,6,7,8-tetrahydro-pyrrolo[1,2-a]pyrimidine-6-carboxamide], for which the Ki at human a-thrombin was 2500 to 10000 nM; at MASP-2 (CCP1-CCP2-SP), less than 500 nM.
On to `N#CCc1cccc(CNc2cnc3n(c2=O)[C@H](C(=O)N[C@@H]2CCc4nc(N)ccc42)CC3)c1` [Compound 91, (S)-N-((R)-2-amino-6,7-dihydro-5H-cyclopenta[b]pyridin-5-yl)-3-((3-(cyanomethyl)benzyl)amino)-4-oxo-4,6,7,8-tetrahydro-pyrrolo[1,2-a]pyrimidine-6-carboxamide], for which the values for the Ki at human a-thrombin and at MASP-2 (CCP1-CCP2-SP) were 500 to 2500 nM and less than 500 nM, respectively.
Turning to `Cc1nc(N)ccc1CNC(=O)[C@@H]1CCc2ncc(NCc3cc(F)ccc3F)c(=O)n21` [Compound 28, (S)-N-((6-amino-2-methylpyridin-3-yl)methyl)-3-((2,5-difluorobenzyl)amino)-4-oxo-4,6,7,8-tetrahydropyrrolo[1,2-a]pyrimidine-6-carboxamide, di-trifluoroacetate], the Ki on human a-thrombin was 500 to 2500 nM; at MASP-2 (CCP1-CCP2-SP), less than 500 nM.
Taken in the same sequence, the figures for `Cc1ccc(F)c(CNc2cnc3n(c2=O)[C@H](C(=O)NCc2ccc(N)nc2C)CC3)c1` [Compound 3, (S)—N-((6-amino-2-methylpyridin-3-yl)methyl)-3-((2-fluoro-5-methylbenzyl)amino)-4-oxo-4,6,7,8-tetrahydropyrrolo[1,2-a]pyrimidine-6-carboxamide] were 500 to 2500 nM and less than 500 nM.
`Cc1nc(N)ccc1CNC(=O)[C@@H]1CCc2ncc(NCc3cc(C(F)(F)F)ccc3F)c(=O)n21` [Compound 38, (S)-N-((6-amino-2-methylpyridin-3-yl)methyl)-3-((2-fluoro-5-(trifluoromethyl)benzyl)amino)-4-oxo-4,6,7,8-tetrahydro-pyrrolo[1,2-a]pyrimidine-6-carboxamide, di-trifluoroacetate]: the Ki was 2500 to 10000 nM on human a-thrombin and less than 500 nM at MASP-2 (CCP1-CCP2-SP).
For `Cc1cc(CNc2cnc3n(c2=O)[C@H](C(=O)NCc2ccc(N)nc2C)CC3)cc(C(F)(F)F)c1` [Compound 29, (S)-N-((6-amino-2-methylpyridin-3-yl)methyl)-3-((3-methyl-5-(trifluoromethyl)benzyl)amino)-4-oxo-4,6,7,8-tetrahydro-pyrrolo[1,2-a]pyrimidine-6-carboxamide, di-trifluoroacetate], the Ki on human a-thrombin was 500 to 2500 nM; at MASP-2 (CCP1-CCP2-SP), less than 500 nM.
Taken in the same sequence, the figures for `Cc1nc(N)ccc1CNC(=O)[C@@H]1CCc2ncc(NCc3ccc4c(c3)OC(F)(F)O4)c(=O)n21` [Compound 12, (S)—N-((6-amino-2-methylpyridin-3-yl)methyl)-3-(((2,2-difluorobenzo[D][1,3]dioxol-5-yl)methyl)amino)-4-oxo-4,6,7,8-tetrahydropyrrolo[1,2-a]pyrimidine-6-carboxamide, trifluoroacetate] were 2500 to 10000 nM and less than 500 nM.
On the same counts, the results for `Nc1ccc2c(n1)CC[C@H]2NC(=O)[C@@H]1CCc2ncc(NCc3ccc4c(c3)OCC4)c(=O)n21` [Compound 99] are 2500 to 10000 nM and less than 500 nM.
Taken in the same sequence, the figures for `COc1cc(F)cc(CNc2cnc3n(c2=O)[C@H](C(=O)NCc2ccc(N)nc2C)CC3)c1` [Compound 49, (S)-N-((6-amino-2-methylpyridin-3-yl)methyl)-3-((3-fluoro-5-methoxybenzyl)amino)-4-oxo-4,6,7,8-tetrahydropyrrolo[1,2-a]pyrimidine-6-carboxamide, di-trifluoroacetate] were less than 500 nM and less than 500 nM.
In the case of `N#Cc1cc(Cl)cc(CNc2cnc3n(c2=O)[C@H](C(=O)N[C@@H]2CCc4nc(N)ccc42)CC3)c1` [Compound 89, (S)-N-((R)-2-amino-6,7-dihydro-5H-cyclopenta[b]pyridin-5-yl)-3-((3-chloro-5-cyanobenzyl)amino)-4-oxo-4,6,7,8-tetrahydro-pyrrolo[1,2-a]pyrimidine-6-carboxamide], the Ki at human a-thrombin and at MASP-2 (CCP1-CCP2-SP) was less than 500 nM each time.
As to `Cc1nc(N)ccc1CNC(=O)[C@@H]1CCc2ncc(NCc3cccc(OC4CC4)c3)c(=O)n21` [Compound 37, (S)-N-((6-amino-2-methylpyridin-3-yl)methyl)-3-((3-cyclopropoxybenzyl)amino)-4-oxo-4,6,7,8-tetrahydropyrrolo[1,2-a]pyrimidine-6-carboxamide, trifluoroacetate], the Ki on human a-thrombin and on MASP-2 (CCP1-CCP2-SP) was less than 500 nM throughout.
